Where two headings read alike, the source gives them in different places.

Format in all cases: cell-based
For assay [1], the system named is ALT-positive, telomerase-positive, ALT- and telomerase-positive, and normal cell lines. Kind of assay: Proliferation and cell death across panel of ALT-positive, telomerase-positive, ALT- and telomerase-positive and normal cell lines. The note with it: for toxicity across cell lines (FIG. 5): 0-25 μM, different cell lines. The protocol:
(§1) U2OS cells were treated with compounds 1, 2, 14, and 32 at concentrations of 0, 0.625, 1.25, 2.5, 5, 10, 15, 20 and 25 μM. Cell proliferation (confluency) and cytotoxicity (CellTox™ Green confluency) were assessed using the IncuCyte® live cell imaging platform. Cell death was calculated as a percentage of overall confluency, using CellTox™ Green confluency as a percentage of total cell confluence. Cell toxicity measurements were capped at the time point at which cells reached complete confluency. This was to account for cell death due to over-confluency of cells, rather than as a result of compounds' effects. The same experiments were also performed on a list of ALT-positive, telomerase-positive, ALT- and telomerase-positive, and normal cell lines. For the ALT-positive cell lines GM847, SK—N—FI, HuO9, Saos-2, CAL72, IIICF/c, and HS729 were employed. For the telomerase-positive cells HCT116, HeLa, HT1080, SK—N—Be2, and SK—N-AS, and KELLY were used. For the ALT-positive/telomerase-positive and mortal cell strains GM847 hTERT, MRC-5, and IMR-90 were employed.

Assay [2] concerns U2OS cells. Description: U2OS cell proliferation (confluency), IncuCyte live cell imaging. The note with it: for IC50: confluency, read-out: IC50 (concentration of drug that inhibits 50% of cell growth). As to the method: as §1
Assay [3] has as its system U2OS cells. Description: U2OS cytotoxicity / cell death (CellTox Green confluency), IncuCyte. The note with it: Homo sapiens, read-out: EC50 (concentration that effectively causes 50% of cell death). The protocol:
as §1

The target in assay [4] is T1, FANCM-BTR interaction (Homo sapiens, UniProt Q8IYD8+Q9H9A7).
T1 construct: endogenous in cells; host or cells: U2OS
Kind of assay: Co-immunoprecipitation with RMI1 antibody in U2OS cells, western blot. The note with it: treatment at the IC50 concentration, 72 hours. As to the method: To determine whether the compounds disrupt the FANCM-BTR interaction, co-immunoprecipitation experiments using the RMI1 antibody were performed in the presence and absence of compounds 1, 2, 14, 32, and the already reported compound PIP-199 treatments as well as the scambled, siFANCM and DMSO. This method provides information indicating the direct binding of proteins and is highly specific and simple to perform. U2OS cells were seeded at 50% confluency in 150 cm^2 flasks (BD Falcon). After 24 hours, cells were treated with scrambled, siFANCM and DMSO (0.3%, determined by the maximal DMSO concentration present in drugs) treatments, and 2, 14, 32, PIP-199 treatments at their IC50 concentrations. After 72 hours, cells were washed once with warm PBS, trypsinised for 5 minutes at 37° C., resuspended in media and counted using a Beckman Coulter cell counter. Cells were collected in pellets in Protein Lobind tubes (Eppendorf) by centrifugation at 200×g at 4° C. and supernatant was discarded. […]
The Dynabeads®-Ab-protein complex was washed three times using 200 μL ice cold Lysis Buffer B for each wash. […] The eluates were analysed by western blot and the data was quantitated using ImageJ software (National Institutes of Health). Eluates were expressed as a percentage of their respective lysates to show relative differences between treatments.
Background: A western blot detects proteins with antibodies after separation by electrophoresis.

On to `CCN1CCCc2cc(CN(C3CCCC3)S(=O)(=O)c3ccc(CCOC)cc3)ccc21` [Compound 14, N-cyclopentyl-N-((1-ethyl-1,2,3,4-tetrahydroquinolin-6-yl)methyl)-4-(2-methoxy-ethyl)benzenesulfonamide], for which, in assay [1], the “toxicity across cell lines (FIG. 5)” value was “concentration-dependent toxicity that is partly selective to the ALT cell lines”.

As for `CCN1CCCc2cc(CN(C3CCCC3)S(=O)(=O)c3cccc([N+](=O)[O-])c3)ccc21` [Compound 1, N-cyclopentyl-N-((1-ethyl-1,2,3,4-tetrahydroquinolin-6-yl)methyl)-3-nitrobenzenesulfon-amide], in assay [1], the “toxicity across cell lines (FIG. 5)” value was “concentration-dependent toxicity that is partly selective to the ALT cell lines”.

In the case of `CCN1CCCc2cc(CN(C3CCCC3)S(=O)(=O)c3ccc(NCc4c[nH]cn4)cc3)ccc21` [Compound 32, 4-(((1H-imidazol-4-yl)methyl)amino)-N-cyclopentyl-N-((1-ethyl-1,2,3,4-tetrahydroquinolin-6-yl)methyl)benzenesulfonamide], the IC50 turned out to be 15.5 µM in assay [2] (Homo sapiens, U2OS) and 15.5 µM in assay [2]. In addition, the “inhibition of U2OS cell viability” value in assay [2] (preliminary cell-based assays) is “shows inhibition of U2OS cell viability”. For the same compound, in assay [3], the EC50 is 1360 nM. Also, the “comparison of IC50 and EC50 values across the panel of cell lines” value in assay [1] (ALT-positive vs telomerase-positive, ALT/telomerase-positive and mortal cell lines) is reported as “selective induction of ALT-cell death”. In addition, the “FANCM levels co-immunoprecipitated with RMI1” value in assay [4] is “decrease in FANCM levels”.

For the origin of these results see patent US20260097029A1, “Tetrahydroquinoline Compounds As Antitumor Agents” (priority 2022, published 2026).
